Literature values, collected in US8444622B2, “Device, system, and method for targeted delivery of anti-inflammatory medicaments to a mammalian subject” (The Invention Science Fund I, LLC, priority 2009, dated 2013).

COc1ccc2cc([C@H](C)C(=O)O)ccc2c1 [naproxen]
elimination from synovial fluid (appreciable drug concentrations may still be measurable after 24 hours): slow
time to steady-state in synovial fluid (once daily dosing of naproxen sodium): within a week
predicted accumulation ratio based on trough concentration (synovial fluid, once daily dosing of naproxen sodium): 2.4
